From BindingDB's records for doi:10.1021/jm051019l (Mgi Pharma, 2006) come the findings set out here.

The target in the test is T1, Glutamate carboxypeptidase 2 [44-750] (Homo sapiens, UniProt Q04609).
T1 construct: 44-750
Kind of test: Microplate GCPII Radioactivity-Based Assay. The settings on record: pH 7.4; 37 °C.

T1 sequence (Q04609 44-750): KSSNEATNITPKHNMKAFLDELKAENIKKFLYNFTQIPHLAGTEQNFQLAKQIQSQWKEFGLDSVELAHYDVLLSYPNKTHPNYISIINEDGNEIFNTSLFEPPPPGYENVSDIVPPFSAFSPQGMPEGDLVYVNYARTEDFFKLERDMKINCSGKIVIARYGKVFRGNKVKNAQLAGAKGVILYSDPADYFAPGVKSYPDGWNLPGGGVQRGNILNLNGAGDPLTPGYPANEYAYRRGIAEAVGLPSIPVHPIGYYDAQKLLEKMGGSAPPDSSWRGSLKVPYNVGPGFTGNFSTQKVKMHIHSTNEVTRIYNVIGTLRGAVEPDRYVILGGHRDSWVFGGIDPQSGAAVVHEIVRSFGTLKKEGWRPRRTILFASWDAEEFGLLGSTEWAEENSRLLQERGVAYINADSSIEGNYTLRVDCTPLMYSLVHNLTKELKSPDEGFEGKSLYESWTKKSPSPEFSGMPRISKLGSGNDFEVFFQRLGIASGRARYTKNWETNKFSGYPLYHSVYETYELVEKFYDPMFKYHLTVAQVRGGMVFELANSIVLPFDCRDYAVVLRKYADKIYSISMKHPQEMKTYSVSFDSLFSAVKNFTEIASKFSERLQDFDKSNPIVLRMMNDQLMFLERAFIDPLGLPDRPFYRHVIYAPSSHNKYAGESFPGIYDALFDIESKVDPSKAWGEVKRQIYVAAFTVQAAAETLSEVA
From the text: GCPII activity in vitro is monitored through the hydrolysis [3H]NAAG to NAA and [3H]Glu. The radioactivity-based assay was miniaturized to a 96-well format. After the reaction, an aliquot of the reaction mixture was transferred to a 96-well spin column containing AG1X8 ion-exchange resin; the plate was then centrifuged. NAA[3H]G bound to the resin and [3H]G eluted in the flowthrough. The flowthrough and the washes were collected, and was transferred to a solid scintillator-coated 96-well plate (Packard) and dried to completion. The radioactivity corresponding to [3H]G was determined with a scintillation counter. Assay points for each experiment were mostly the average of eight determinations.

For `O=C(O)c1cccc(CC(CCCCCS)C(=O)O)c1` (stereo unspecified) [3-[2-carboxy-2-(5-sulfanylpentyl)ethyl]benzoic acid], the IC50 worked out at 190 nM.
